The record followed here is US7635779B2, “Oxy substituted flavones as antihyperglycemic and antidyslipidemic agents” (Council of Scientific & Industrial Research, priority 2004, dated 2009).

The test system of data set [1] is sucrose loaded rat. The data set can be described thus: Sucrose loaded rat model (SLM), antihyperglycemic activity. Conditions: for % Fall in blood glucose levels, SLM: 100 mg/kg oral, AUC vs control; for inhibition in vivo at 100 mg/kg: Rattus norvegicus, po, 2 h, read-out: % Fall in blood glucose levels, SLM. The data set is classed as in vivo. The protocol:
Male albino rats of Charles Foster/Wistar strain of average body weight 160±20 g were selected for this study. The blood glucose level of each animal was checked by glucometer using glucostrips (Boehringer Mannheim) after 16 h starvation. Animals showing blood glucose levels between 3.33 to 4.44 mM (60 to 80 mg/dl) were divided into groups of five to six animals in each. Animals of experimental group were administered suspension of the desired synthetic compound orally (made in 1.0% gum acacia) at a dose of 100-mg/kg-body weight. Animals of control group were given an equal amount of 1.0% gum acacia. A sucrose load (10.0 g/kg) was given to each animal orally exactly after 30 min post administration of the test sample/vehicle. Blood glucose profile of each rat was again determined at 30, 60, 90 and 120 min post administration of sucrose by glucometer. Food but not water was withheld from the cages during the course of experimentation. Quantitative glucose tolerance of each animal was calculated by Area Under Curve (AUC) method (Prism Software). Comparing the AUC of experimental and control groups determined the percentage antihyperglycemic activity. Statistical comparison was made by Dunnett's test.

Data set [2] has as its system triton WR-1339 induced hyperlipidemic rats. The data set can be described thus: Triton model, antidyslipidemic activity. The format is in vivo, rat. The note with it: 100 mg/kg oral, plasma after 18 h; for inhibition in vivo at 100 mg/kg: Rattus norvegicus. The protocol: Male Charles foster rats weighing 200-225 g were divided into control, hyperlipidemic and hyperlipidemic plus drug treated groups containing six animals in each group. Hyperlipidemia was induced by administration of triton WR-1339 (200 mg/kg i.p.). All animals were maintained on a special pellet diet and water ad libitum. Compounds and standard drug were macerated with 0.2% aqueous gum acacia suspension. The suspension was fed orally at the dose of 100 mg/kg simultaneously with triton in drug treated group. The animals of control group received the same amount of gum acacia by similar route of administration. At the end of the experiment, after 18 h, blood was withdrawn from retro orbital plexus and plasma was used for the assay of total cholesterol, phospholipid and triglycerides.
Cholesterol was estimated using the kit provided by Roche Diagnostics. Cholesterol esters are enzymatically hydrolyzed by cholesterol esterase (CE) to cholesterol and free fatty acids. Free cholesterol, including that originally present, is then oxidized by cholesterol oxidase (CO) to cholest-4-en-3-one and hydrogen peroxide. The hydrogen peroxide combines with hydroxy benzoic acid (HBA) and 4-aminoantipyrine (4AAA) in the presence of peroxidase (POD) to form a chromophore (quinoneimine dye), which may be quantitated at 500-505 nm. The intensity of red colour formed is directly proportional to the concentration of total cholesterol in the specimen and measured spectrophotometrically (Searcy, C. L. Diagnostic Biochemistry, 1969, McGraw Hill, New York; Ellefson, R. D.; Caraway, W. T. Fundamentals of clinical chemistry, 1976, Ed Tietz N W, 506-515.)
Triglycerides were estimated using the kit provided by Roche Diagnostics. Lipoprotein lipase hydrolyses triglycerides to yield glycerol and fatty acids. Glycerol kinase converts glycerol to glycerol-3-phosphate, which is oxidized by glycerol phosphate oxidase to dihydroxy acetone phosphate and hydrogen peroxide. In the presence of peroxidase, hydrogen peroxide oxidatively couples with 4-aminoantipyrine and 4-chloro phenol to produce red quinonimine dye. The intensity of red colour formed is directly proportional to the concentration of triglycerides in the specimen and is measured by photometrically (Wahlefeld, A. W.; Bergmeyer, H. U. Ed. Methods of enzymatic analysis, 2nd English edition, New York, N.Y., Academic press inc, 1831-1840.).
Serum (0.2 mL) and perchloric acid (1.0 mL) was digested at 180° C. for 1-1.5 h till the solution became colorless. The liberated inorganic phosphate (Pi) was measured by the method of Fiske and Subbarow (Fiske, C. H.; Subbarow, V. J. Biol. Chem. 1925, 66, 375.). 1 mL of 2.5% ammonium molybdate (prepared in 5 N sulphuric acid) and 0.5 mL reducing agent (4-amino naphthol sulphonic acid, 0.2%), sodium metabisulphite (2.4% w/v in distilled water) was added to the above tubes and mixed well. The reaction mixture was […] with 2.5 mL of triple distilled water and kept at 60° C. in water bath for 20 min. For standard, an appropriate amount of potassium dihydrogen phosphate dissolved in triple distilled water containing 2-10 μg phosphorous (Pi) was run simultaneously with the experiment tubes. The optical density of the blue colour was recorded at 620 nm against reagent blank. The values of Pi were converted into phospholipid by multiplying with 25 (a constant calibrated from Pi value of lecithin).

For data set [3], the system named is streptozotocin-induced diabetic rats. The data set can be described thus: Sucrose-challenged streptozotocin-induced diabetic rats (STZ-S). The format is in vivo, rat. Conditions: 100 mg/kg oral. As to the method:
Male albino rats of Sprague Dawley strain of body weight 160+20 g were selected for this study. Streptozotocin (Sigma, USA) was dissolved in 100 mM citrate buffer pH 4.5 and calculated amount of the fresh solution was injected to overnight fasted rats (45 mg/kg) intraperitoneally. Blood glucose level was checked 48 h later by glucostrips and animals showing blood glucose values between 144 to 270 mg/dl (8 to 15 mM) were included in the experiment and termed diabetic. The diabetic animals were divided into groups consisting of five to six animals in each group. Animals of experimental groups were administered suspension of the desired test samples orally (made in 1.0% gum acacia) at a dose of 100-mg/kg-body weight. Animals of control group were given an equal amount of 1.0% gum acacia. A sucrose load of 2.5-g/kg body weight was given after 30 minutes of compound administration. After 30 minutes of post sucrose load blood glucose level was again checked by glucostrips at 30, 60, 90, 120, 180, 240, 300 min and at 24 h, respectively. Animals not found diabetic after 24 hours post treatment of the test sample were not considered and omitted from the calculations and termed as non-responders. […] Food but not water was withheld from the cages during the experimentation. Comparing the AUC of experimental and control groups determined the percent antihyperglycemic activity. Statistical comparison between groups was made by Student's ‘t’ test.
As depicted in the FIGURE, a dose response curve of 34 was obtained by administering different doses of test compound to streptozotocin-induced diabetic rats (Table 6). […]

Where [4] appears, read: phospholipid, read-out: % Fall in lipid levels (Triton model) PL.
Setting [5] is: total cholesterol, read-out: % Fall in lipid levels (Triton model) TC.
Setting [6] is: triglycerides, read-out: % Fall in lipid levels (Triton model) TG.

Like-named read-outs stand apart in the source and are kept apart here.

In the case of `COc1cc(OC)cc(-c2cc(=O)c3ccc(OCC(O)CN4CCN(c5ccccc5)CC4)cc3o2)c1` (stereo not shown) [Compound 45, 3′,5′-Dimethoxy-7-[2-hydroxy-3-(4-phenylpiperazin-1-yl)-propoxy]-flavone], the melting point – broadly, the temperature, or range, at which the solid turns liquid – is 195 to 196 °C. For the same molecule, the “% Fall in blood glucose levels, SLM” value in data set [1] is “NIL”. For the same molecule, the inhibition in vivo at 100 mg/kg in data set [2] (setting [4]) stood at 20%. Besides, in data set [2] (setting [5]), the inhibition in vivo at 100 mg/kg stood at 30%. The inhibition in vivo at 100 mg/kg in data set [2] (setting [6]) was determined as 31%.
`COc1cc(OC)cc(-c2cc(=O)c3ccc(OCCCOc4ccc(C=C5SC(=O)NC5=O)cc4)cc3o2)c1` [Compound 66, 3′,5′-Dimethoxy-7-{3-[4-(thiazolidin-2,4-dione-5-ylidinemethyl)-phenoxy]-propoxy}-flavone]: the “% Fall in blood glucose levels, SLM” value in data set [1] came out at 28.80%. In addition, in data set [3], the “% Fall in blood glucose levels, STZ-S 5 h” value is listed as 18.9% and the “% Fall in blood glucose levels, STZ-S 24 h” value was determined as 20.2%.
Consider `O=C1NC(=O)C(=Cc2ccc(OCCOc3ccc4c(=O)cc(-c5cc(OCc6ccccc6)cc(OCc6ccccc6)c5)oc4c3)cc2)S1` [Compound 62, 3′,5′-Dibenzyloxy-7-{2-[4-(thiazolidin-2,4-dione-5-ylidinemethyl)-phenoxy]-ethoxy}-flavone], for which, in data set [1], the “% Fall in blood glucose levels, SLM” value is “NIL”. The “% Fall in lipid levels (Triton model) PL” value in data set [2] (phospholipid) worked out at 15%. Also, in data set [2] (total cholesterol), the “% Fall in lipid levels (Triton model) TC” value amounted to 15%. In addition, the “% Fall in lipid levels (Triton model) TG” value in data set [2] (triglycerides) is 18%.
As for `COc1ccc(-c2cc(=O)c3ccc(OCCCOc4ccc(C=C5SC(=O)NC5=O)cc4)cc3o2)cc1OC` [Compound 67, 3′,4′-Dimethoxy-7-{3-[4-(thiazolidin-2,4-dione-5-ylidinemethyl)-phenoxy]-propoxy}-flavone], the “% Fall in blood glucose levels, SLM” value in data set [1] is recorded as 13.60%. The “% Fall in lipid levels (Triton model) PL” value in data set [2] (phospholipid) is given as 14%. In data set [2] (total cholesterol), the “% Fall in lipid levels (Triton model) TC” value is 28%. In addition, in data set [2] (triglycerides), the “% Fall in lipid levels (Triton model) TG” value is listed as 21%. In data set [3], the “% Fall in blood glucose levels, STZ-S 5 h” value came out at 18.7% and the “% Fall in blood glucose levels, STZ-S 24 h” value stood at 13.6%.
With `O=C1NC(=O)C(=Cc2ccc(OCCOc3ccc4c(=O)cc(-c5ccc(OCc6ccccc6)c(OCc6ccccc6)c5)oc4c3)cc2)S1` [Compound 63, 3′,4′-Dibenzyloxy-7-{2-[4-(thiazolidin-2,4-dione-5-ylidinemethyl)-phenoxy]-ethoxy}-flavone], in data set [1], the “% Fall in blood glucose levels, SLM” value was found to be 26.0%.
In turn, `COc1ccc(-c2cc(=O)c3ccc(OCC(O)CN4CCN(c5ccccc5)CC4)cc3o2)cc1OC` (stereo not shown) [Compound 47, 3′,4′-Dimethoxy-7-[2-hydroxy-3-(4-phenylpiperazin-1-yl)-propoxy]-flavone] gave a melting point of 191 to 193 °C. Besides, the inhibition in vivo at 100 mg/kg in data set [1] came out at 5.45%. In data set [2] (setting [4]), the inhibition in vivo at 100 mg/kg was 22%. The inhibition in vivo at 100 mg/kg in data set [2] (setting [5]) worked out at 23%. Also, the inhibition in vivo at 100 mg/kg in data set [2] (setting [6]) amounted to 19%.
The molecule `CC(C)(C)NCC(O)COc1ccc2c(=O)cc(-c3ccc(OCc4ccccc4)c(OCc4ccccc4)c3)oc2c1` (stereo not shown) [Compound 37, 7-(3-tert-Butylamino-2-hydroxy-propoxy)-3′,4′-dibenzyloxy-flavone] registered a melting point of 159 to 161 °C. In addition, in data set [1], the “% Fall in blood glucose levels, SLM” value is given as “NIL”. In addition, the inhibition in vivo at 100 mg/kg in data set [2] (setting [4]) was 12%. Further, the inhibition in vivo at 100 mg/kg in data set [2] (setting [5]) was 23%. The inhibition in vivo at 100 mg/kg in data set [2] (setting [6]) turned out to be 16%.
On to `COc1cc(-c2cc(=O)c3ccc(OCC(O)CN4CCN(c5ccccc5)CC4)cc3o2)cc(OC)c1OC` (stereo not shown) [Compound 42, 7-[2-Hydroxy-3-(4-phenylpiperazin-1-yl)-propoxy]-3′,4′,5′-trimethoxy-flavone], for which the melting point is 170 to 171 °C. Also, the inhibition in vivo at 100 mg/kg in data set [1] was found to be 5.64%. The inhibition in vivo at 100 mg/kg in data set [2] (setting [4]) turned out to be 8%. Also, the inhibition in vivo at 100 mg/kg in data set [2] (setting [5]) turned out to be 19%. Besides, the inhibition in vivo at 100 mg/kg in data set [2] (setting [6]) came to 23%.
Turning to `COc1cc(-c2cc(=O)c3ccc(OCCOc4ccc(C=C5SC(=O)NC5=O)cc4)cc3o2)cc(OC)c1OC` [Compound 64, 7-{2-[4-(thiazolidin-2,4-dione-5-ylidinemethyl)-phenoxy]-ethoxy}-3′,4′,5′-trimethoxy-flavone], the “% Fall in blood glucose levels, SLM” value in data set [1] was determined as 9.59%. The “% Fall in lipid levels (Triton model) PL” value in data set [2] (phospholipid) stood at 25%. Also, the “% Fall in lipid levels (Triton model) TC” value in data set [2] (total cholesterol) amounted to 20%. In addition, in data set [2] (triglycerides), the “% Fall in lipid levels (Triton model) TG” value is on record as 26%.
`COc1ccc(-c2cc(=O)c3ccc(OCC(O)CNC(C)C)cc3o2)cc1OC` (stereo not shown) [Compound 46, 3′,4′-Dimethoxy-7-[2-hydroxy-3-iso-propylamino-propoxy]-flavone] showed a melting point of 144 to 145 °C. In addition, the inhibition in vivo at 100 mg/kg in data set [1] amounted to 23.9%.
Regarding `CC(C)NCC(O)COc1ccc2c(=O)cc(-c3ccc(O)c(O)c3)oc2c1` (stereo not shown) [Compound 51, 3′,4′-Dihydroxy-7-(2-hydroxy-3-iso-propylamino-propoxy)-flavone], the “% Fall in blood glucose levels, SLM” value in data set [1] was “NIL”. The inhibition in vivo at 100 mg/kg in data set [2] (setting [4]) was 13%; in data set [2] (setting [5]), 15%; in data set [2] (setting [6]), 19%.
With `CC(C)(C)NCC(O)COc1ccc2oc(-c3ccc(O)c(O)c3)cc(=O)c2c1` (stereo not shown) [Compound 52, 6-(3-tert-Butylamino-2-hydroxy-propoxy)-3′,4′-dihydroxy-flavone], the inhibition in vivo at 100 mg/kg in data set [1] came out at 4.96%; in data set [2] (setting [4]), 23%; in data set [2] (setting [5]) it was 24%; in data set [2] (setting [6]), 25%.
Regarding `CC(C)(C)NCC(O)COc1ccc2c(=O)cc(-c3ccc(O)c(O)c3)oc2c1` (stereo not shown) [Compound 50, 7-(3-tert-Butylamino-2-hydroxy-propoxy)-3′,4′-dihydroxy-flavone], the “% Fall in blood glucose levels, SLM” value in data set [1] is “NIL”. For the same molecule, the inhibition in vivo at 100 mg/kg is 23% in data set [2] (setting [4]), 21% in data set [2] (setting [5]) and 25% in data set [2] (setting [6]).
